The target in test [1] is T1, NEP (neutral endpeptidase) (Rattus norvegicus, UniProt P07861).
T1 construct: membrane fraction prepared from the kidney cortex of rat; from tissue; host or cells: rat kidney cortex membrane fraction
T1 sequence (P07861 1-750): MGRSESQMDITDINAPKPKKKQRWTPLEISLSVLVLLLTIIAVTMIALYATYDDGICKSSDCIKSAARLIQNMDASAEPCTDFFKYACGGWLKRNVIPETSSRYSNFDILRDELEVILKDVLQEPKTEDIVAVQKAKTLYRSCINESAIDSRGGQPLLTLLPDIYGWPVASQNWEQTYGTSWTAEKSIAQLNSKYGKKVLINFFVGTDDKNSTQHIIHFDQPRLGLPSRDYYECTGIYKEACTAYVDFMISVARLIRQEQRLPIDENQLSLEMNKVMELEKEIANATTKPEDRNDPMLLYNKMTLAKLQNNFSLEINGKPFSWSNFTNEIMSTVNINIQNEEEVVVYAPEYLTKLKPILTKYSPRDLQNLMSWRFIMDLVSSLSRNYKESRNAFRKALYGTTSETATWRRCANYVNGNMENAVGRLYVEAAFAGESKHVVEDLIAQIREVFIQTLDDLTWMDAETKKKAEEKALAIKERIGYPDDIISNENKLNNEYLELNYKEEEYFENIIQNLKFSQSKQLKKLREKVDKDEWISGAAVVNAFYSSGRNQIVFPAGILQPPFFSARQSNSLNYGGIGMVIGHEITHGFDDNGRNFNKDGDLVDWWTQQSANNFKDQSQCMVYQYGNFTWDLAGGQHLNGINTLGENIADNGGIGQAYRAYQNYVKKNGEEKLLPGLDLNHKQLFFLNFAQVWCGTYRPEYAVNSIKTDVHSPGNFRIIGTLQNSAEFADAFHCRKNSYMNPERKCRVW
Kind of test: NEP inhibiting activity with rat kidney cortex membrane fraction. The following applies: substrate Benzoyl-Gly-Arg-Arg-2-naphthylamide, 540 nm. Format: biochemical. As for the experimental part: Determination of NEP inhibiting activities of medicaments with rat kidney cortex
NEP activity was determined with the membrane fraction prepared from the kidney cortex of rat according to the process of Booth and Kenny (A Rapid Method for the Purification of Microvilli from Rabbit Kidney., Andrew G. Booth and A. John Kenny, Biochem J., 1974, 142, 575-581).
The NEP activity was determined according to the process of Orlowsky and Wilk (Purification and Specificity of a Membrane-Bound Metalloendpeptidase from Bovine Pituitaries., Marian Orlowsky and Shrwin Wilk, Biochemistry, 1981, 20, 4942-4950.) by the following method.
Benzoyl-glycyl-arginyl-arginyl-2-naphthylamide (Benzoyl-Gly-Arg-Arg-2-napththylamide (Nova Biochem, Switzerland)) was used as substrate. The naphthylamine liberated in the presence of the NEP enzyme sample and excess of leucine aminopeptidase (Sigma Chemical Co., U.S.A.) was color-developed with […] (Sigma Chemical Co., U.S.A.) and the absorbance at a wavelength of 540 nm was determined.
The NEP inhibiting activity was determined by adding the test compound to the above experiment system in final concentrations of 1, 3, 10, 30, 100, 300 and 1000 nM to form an inhibition curve and determining the concentration at which 50% of the activity was inhibited as IC50. [4S-(4α,7α(R*), 12bβ]]-7-[(1-oxo-2(S)-thio-3-phenylpropyl)amino]-1,2,3,4,6,7,8,12b-octahydro-6-oxopyrido[2,1-a] [2] benzazepine-4-carboxylic acid (which is a compound disclosed in Japanese Patent Publication-A No. 4-282382) was used as the control compound.

Test [2] concerns the target T2, ACE (angiotensin I converting enzyme) (Rattus norvegicus, UniProt P47820).
T2 construct: membrane fraction prepared from the lung of rat; from tissue; host or cells: rat lung membrane fraction
T2 sequence (P47820 36-1313): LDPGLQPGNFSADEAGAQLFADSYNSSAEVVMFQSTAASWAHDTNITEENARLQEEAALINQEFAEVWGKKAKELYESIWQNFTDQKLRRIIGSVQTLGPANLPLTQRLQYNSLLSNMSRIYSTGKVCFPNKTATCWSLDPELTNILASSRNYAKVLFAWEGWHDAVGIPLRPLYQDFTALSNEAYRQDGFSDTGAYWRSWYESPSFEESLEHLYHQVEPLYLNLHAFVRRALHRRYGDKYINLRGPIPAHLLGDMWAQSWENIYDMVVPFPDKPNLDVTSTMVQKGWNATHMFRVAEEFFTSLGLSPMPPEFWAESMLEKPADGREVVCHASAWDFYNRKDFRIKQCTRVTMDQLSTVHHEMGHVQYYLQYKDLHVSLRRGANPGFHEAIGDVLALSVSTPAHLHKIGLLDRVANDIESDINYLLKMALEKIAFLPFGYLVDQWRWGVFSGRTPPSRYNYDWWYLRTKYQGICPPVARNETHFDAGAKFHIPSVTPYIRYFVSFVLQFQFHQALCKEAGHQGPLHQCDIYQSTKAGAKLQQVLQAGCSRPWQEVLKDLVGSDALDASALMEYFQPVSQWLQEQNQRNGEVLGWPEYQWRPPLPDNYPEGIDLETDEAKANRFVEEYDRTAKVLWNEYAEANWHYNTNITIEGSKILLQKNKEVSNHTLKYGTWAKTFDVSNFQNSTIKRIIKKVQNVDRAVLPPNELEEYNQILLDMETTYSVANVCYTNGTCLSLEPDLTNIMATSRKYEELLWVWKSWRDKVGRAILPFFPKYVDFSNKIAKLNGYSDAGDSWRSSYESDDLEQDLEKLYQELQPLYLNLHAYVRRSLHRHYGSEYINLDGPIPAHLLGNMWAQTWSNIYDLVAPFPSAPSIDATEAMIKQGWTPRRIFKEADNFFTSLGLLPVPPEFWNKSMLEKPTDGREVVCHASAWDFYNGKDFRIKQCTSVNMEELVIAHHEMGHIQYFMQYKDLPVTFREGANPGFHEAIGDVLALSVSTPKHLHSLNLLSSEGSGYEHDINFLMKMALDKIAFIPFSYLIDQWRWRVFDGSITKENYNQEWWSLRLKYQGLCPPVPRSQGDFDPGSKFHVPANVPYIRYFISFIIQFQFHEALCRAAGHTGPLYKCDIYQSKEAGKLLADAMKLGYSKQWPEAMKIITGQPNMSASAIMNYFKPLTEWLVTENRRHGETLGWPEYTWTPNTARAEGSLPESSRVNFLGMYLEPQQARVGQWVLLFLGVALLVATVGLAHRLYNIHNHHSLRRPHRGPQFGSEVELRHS
The experiment in a line: ACE inhibiting activity with rat lung membrane fraction. The following applies: substrate Hippuryl-His-Leu, borate buffer pH 8.3, 228 nm. It counts as biochemical. Here is the method:
Determination of ACE inhibiting activities of medicaments with rat lung
ACE inhibiting activity was examined with the membrane fraction prepared from the lung of rat according to the method of Wu-Wong et al. (Characterization of Endthelin Converting Enzyme in Rat Lung, Junshyum R. Wu-Wong, Gerald P. Budzik, Edward M. Devine and Terry J. Opgenorth, Biochem. Biophys. Res. Commun., 1990, 171, 1291-1296.).
The ACE activity was determined by a modification (wherein the pH of the borate buffer was changed to 8.3) of the Cushman-Cheung method (Spectrophotometric Assay and Properties of the Angiotensin-Converting Enzyme of Rabbit Lung., Cushman D. W. and Cheung H. S., 1971, 20, 1637-1648).
The hippurate liberated from Hippuryl-histidylleucine (Hippuryl-His-Leu (Peptidelnstitute lnc., Japan)) in the presence of ACE was extracted with ethyl acetate and the absorbance at a wavelength of 228 nm was determined.
The ACE inhibiting activity was determined by adding the test compound to the above experiment system in final concentrations of 1, 3, 10, 30, 100, 300 and 1000 nM to form an inhibition curve and determining the concentration at which 50% of the activity was inhibited as IC50. [4S-[4α,7α(R*),12bβ]]-7-[(1-oxo-2(S)-thio-3-phenylpropyl)amino]-1,2,3,4,6,7,8,12b-octahydro-6-oxopyrido[2,1-a] [2]benzazepine-4-carboxylic acid (which is a compound disclosed in Japanese Patent Publication-A No. 4-282382) was used as the control compound.

As for `CC[C@H](C)[C@H](S)C(=O)N[C@H]1CC[C@H](C)[C@H]2SC[C@@H](C(=O)O)N2C1=O` [Example 3, [3R-(3α,6α,9β,9aβ)]-6-[[(2S,3S)-1-Oxo-2-thio-3-methylpentyl]amino]-9-methyl-5-oxo-octahydrothiazolo[3,2-a]azepine-3-carboxylic acid], the IC50 in test [1] stood at 4.3 nM; in test [2] it was 2.5 nM.
The like results for `CC[C@H]1CC[C@H](NC(=O)[C@@H](S)[C@@H](C)CC)C(=O)N2[C@@H]1SC[C@H]2C(=O)O` [Example 24, [3R-(3α,6α,9β,9aβ)]-6-[[(2S,3S)-1-Oxo-2-thio-3-methylpentyl]amino]-9-ethyl-5-oxo-octahydrothiazolo[3,2-a]azepine-3-carboxylic acid] were, in that order, 1.5 nM and 2.5 nM.
On the same counts, the results for `CC[C@H](C)[C@H](S)C(=O)N[C@H]1C[C@@H](C)C[C@H]2SC[C@@H](C(=O)O)N2C1=O` [Example 9, [3R-(3α,6α,8α,9aβ)]-6-[[(2S,3S)-1-Oxo-2-thio-3-methylpentyl]amino]-8-methyl-octahydro-5-oxothiazolo[3,2-a]azepine-3-carboxylic acid] are 13 nM and 5.1 nM.
On the same counts, the results for `CC[C@H](C)[C@H](S)C(=O)N[C@H]1C[C@H](C)C[C@H]2SC[C@@H](C(=O)O)N2C1=O` [Example 10, [3R-(3α,6α,8β,9aβ)]-6-[[(2S,3S)-1-Oxo-2-thio-3-methylpentyl]amino]-8-methyl-octahydro-5-oxothiazolo[3,2-a]azepine-3-carboxylic acid] are 12 nM and 4.3 nM.
`CC[C@H](C)[C@H](S)C(=O)N[C@H]1CC[C@@H](C)[C@H]2SC[C@@H](C(=O)O)N2C1=O` [Example 11, [3R-(3α,6α,9α,9aβ)]-6-[[(2S,3S)-1-Oxo-2-thio-3-methylpentyl]amino]-9-methyl-5-oxo-octahydrothiazolo[3,2-a]azepine-3-carboxylic acid]: the IC50 in test [1] turned out to be 6.7 nM; in test [2], 2.2 nM.

For orientation: IC50 means the midpoint of a concentration-inhibition curve. Low readings indicate greater potency in that assay, high ones weaker potency in that assay.
